How the values were obtained:
[1] = tested on: leukocytes in porcine blood; experiment: Microscopic flow chamber: leukocyte interaction with polysulfone membrane; assay type: cell-based
Description: A custom microscopic flow chamber system was set up to enable microscopic analysis of leukocyte interaction with the SCD membrane. The flow chamber consisted of a polycarbonate housing with an inlet and outlet for perfusion. A polysulfone membrane was affixed to the polycarbonate block with a gasket which directed shear flow. The thickness of the gasket (100 μm) along with the length (2 cm) and the width of the channel (1.5 mm) determined the volume of the flow chamber. Microscopic imaging was accomplished through an optical window made up of a cover glass affixed to the bottom of the polycarbonate block. Either isolated blood or purified leukocytes were used for this study.
Isolated blood was prone to activation from excessive handling. […] Blood passed through the flow chamber at a rate of 20 μL/min with calculated shear forces between 1-10 dynes/cm^2. […]
Microscopic analysis of cell capture events was accomplished using either a Zeiss Axiovert 200M or Axio-Observer epifluorescence microscope equipped with a microscope stage-top incubator to control environmental temperature and CO2 content. Fluorescence images were acquired with either a Zeiss MRm3 or an Icc1 camera at a frequency of 1 frame/second for 5 minutes, for analysis of leukocyte/membrane interaction, and at 1 frame/minute for 1 hour sequences, for analysis of long term leukocyte attachment. […]

[2] = tested on: leukocytes in human whole blood; experiment: In vitro whole blood assay of leukocyte activation; assay type: cell-based; conditions: for CD11b: n = 3; for Lactoferrin: n = 4; for Elastase: n = 5
Method: Heparinized human whole blood was added to tubes with or without lipopolysaccharide (LPS) (10 μg/mL) or formyl-Methionyl-Leucyl-Phenylalanine (fMLF, 50 nM). […] The release of IL-6, IL-8, or IL-10 was measured using commercially available ELISA kits from R&D Systems. The release of elastase was measured using a commercially available ELISA kit from Bender MedSystems. The release of lactoferrin was measured using a commercially available ELISA kit from EMD Chemicals. […] Samples were incubated for various times at 37° C. and 5% CO2. CD11b activation was measured using an FITC-conjugated mouse anti-human antibody (AbD Serotech) and evaluated on an Accuri C6 flow cytometer.

SMILES: O=C(O)CC(O)(CC(=O)O)C(=O)O [Citrate]
- leukocyte attachment to polysulfone membranes during shear flow ([1]; LPS activated, low ionized calcium flow chambers): statistically significant decrease
- blood iCa level ([1]; after addition of citrate (from 1.32±0.05)): 0.32 ± 0.05 mmol/L
- CD11b ([2]; Baseline): 7.32 ± 0.47 MFI × 10^3
- Lactoferrin ([2]; Baseline): 1.67 ± 0.29 mg/mL
- Elastase ([2]; Baseline): 0.94 ± 0.14 mg/mL
- CD11b ([2]; Stimulated (LPS, fMLF)): 28.72 ± 2.95 MFI × 10^3
- Lactoferrin ([2]; Stimulated (LPS, fMLF)): 3.43 ± 0.18 mg/mL
- Elastase ([2]; Stimulated (LPS, fMLF)): 0.91 ± 0.28 mg/mL
- iCa levels ([2]; citrate treated samples (1.25 mM nontreated)): < 0.25 mM

Reference: patent US10722637B2, “Cartridge and method for increasing myocardial function” (SeaStar Medical, Inc., priority 2012, dated 2020)
